Experiments:
Assay in all cases: relative viability (nuclei count vs DMSO), 5 days (fraction); higher = more cells survive
HOP-62 = system: HOP-62
Outline: (§1)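 Relative viability divides the nuclei count in treated wells by that in vehicle wells. Lung cancer cell lines were seeded in 1536-well plates, dosed by pin tool the next day, and fixed and stained after 5 days in one step with final 0.05% Triton X-100, 1% formaldehyde and 1 ug/ml Hoechst. Dosing was a single drug or a fixed anchor-drug dose plus five library-drug doses (not always all listed) in √10 steps, and values are medians of duplicate plates imaged at 4×.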

NCI-H1299 = system: NCI-H1299
Outline: as §1

A549 = system: A549
Outline: as §1

UMC-11 = system: UMC-11
Outline: as §1

Calu-6 = system: Calu-6
Outline: as §1

IA-LM = system: IA-LM
Outline: as §1

EBC-1 = system: EBC-1
Outline: as §1

NCI-H23 = system: NCI-H23
Outline: as §1

ABC-1 = system: ABC-1
Outline: as §1

NCI-H2009 = system: NCI-H2009
Outline: as §1

NCI-H322M = system: NCI-H322M
Outline: as §1

NCI-H1703 = system: NCI-H1703
Outline: as §1

NCI-H1355 = system: NCI-H1355
Outline: as §1

`COCC1(CO)C(=O)C2CCN1CC2` (stereo not drawn) [PRIMA-1MET] + Cc1nc(NC(=O)N2CCC[C@H]2C(N)=O)sc1-c1ccnc(C(C)(C)C(F)(F)F)c1 [Alpelisib] (partner 2 µM) showed a relative viability (HOP-62; first compound 0.2 µM) of 1.13, a relative viability (HOP-62; first compound 0.6325 µM) of 0.986 and a relative viability (HOP-62; first compound 2 µM) of 0.732. The relative viability (HOP-62; first compound 6.325 µM) was 1.18, the relative viability (HOP-62; first compound 20 µM) was 0.487 and the relative viability (NCI-H1299; first compound 0.2 µM) was 1.07. It also gave a relative viability (NCI-H1299; first compound 0.6325 µM) of 1.08, a relative viability (NCI-H1299; first compound 2 µM) of 1.08 and a relative viability (NCI-H1299; first compound 6.325 µM) of 1.03. For the same compound, the relative viability (NCI-H1299; first compound 20 µM) was 0.976, the relative viability (A549; first compound 0.2 µM) was 0.728 and the relative viability (A549; first compound 0.6325 µM) was 0.803. For the same compound, the relative viability (A549; first compound 2 µM) was 0.861, the relative viability (A549; first compound 6.325 µM) was 0.881 and the relative viability (A549; first compound 20 µM) was 0.593. For the same compound, the relative viability (UMC-11; first compound 0.2 µM) was 1.03, the relative viability (UMC-11; first compound 0.6325 µM) was 0.824 and the relative viability (UMC-11; first compound 2 µM) was 1.07. The relative viability (UMC-11; first compound 6.325 µM) was 1.13, the relative viability (UMC-11; first compound 20 µM) was 0.899 and the relative viability (Calu-6; first compound 0.2 µM) was 1.02. The relative viability (Calu-6; first compound 0.6325 µM) was 0.941, the relative viability (Calu-6; first compound 2 µM) was 0.859 and the relative viability (Calu-6; first compound 6.325 µM) was 1. For the same compound, the relative viability (Calu-6; first compound 20 µM) was 0.856, the relative viability (IA-LM; first compound 0.2 µM) was 0.695 and the relative viability (IA-LM; first compound 0.6325 µM) was 0.863. It also gave a relative viability (IA-LM; first compound 2 µM) of 0.726, a relative viability (IA-LM; first compound 6.325 µM) of 1 and a relative viability (IA-LM; first compound 20 µM) of 0.813. The relative viability (EBC-1; first compound 0.2 µM) was 0.87, the relative viability (EBC-1; first compound 0.6325 µM) was 0.921 and the relative viability (EBC-1; first compound 2 µM) was 0.83. The relative viability (EBC-1; first compound 6.325 µM) was 0.757, the relative viability (EBC-1; first compound 20 µM) was 0.666 and the relative viability (NCI-H23; first compound 0.2 µM) was 0.793. The relative viability (NCI-H23; first compound 0.6325 µM) was 0.583, the relative viability (NCI-H23; first compound 2 µM) was 0.555 and the relative viability (NCI-H23; first compound 6.325 µM) was 0.669. It also gave a relative viability (NCI-H23; first compound 20 µM) of 0.111, a relative viability (ABC-1; first compound 0.2 µM) of 1.07 and a relative viability (ABC-1; first compound 0.6325 µM) of 1.1. The relative viability (ABC-1; first compound 2 µM) was 1.11, the relative viability (ABC-1; first compound 6.325 µM) was 1.04 and the relative viability (ABC-1; first compound 20 µM) was 0.479. The relative viability (NCI-H2009; first compound 0.2 µM) was 1.12, the relative viability (NCI-H2009; first compound 0.6325 µM) was 1.15 and the relative viability (NCI-H2009; first compound 2 µM) was 1.23. The relative viability (NCI-H2009; first compound 6.325 µM) was 1.13, the relative viability (NCI-H2009; first compound 20 µM) was 0.325 and the relative viability (NCI-H322M; first compound 0.2 µM) was 0.942. For the same compound, the relative viability (NCI-H322M; first compound 6.325 µM) was 0.907, the relative viability (NCI-H322M; first compound 20 µM) was 0.671 and the relative viability (NCI-H1703; first compound 0.2 µM) was 0.393. For the same compound, the relative viability (NCI-H1703; first compound 0.6325 µM) was 0.37, the relative viability (NCI-H1703; first compound 2 µM) was 0.318 and the relative viability (NCI-H1703; first compound 6.325 µM) was 0.436. It also gave a relative viability (NCI-H1703; first compound 20 µM) of 0.0451, a relative viability (NCI-H1355; first compound 0.2 µM) of 0.953 and a relative viability (NCI-H1355; first compound 0.6325 µM) of 0.7. The relative viability (NCI-H1355; first compound 2 µM) was 0.766, the relative viability (NCI-H1355; first compound 6.325 µM) was 0.86 and the relative viability (NCI-H1355; first compound 20 µM) was 0.852.
